Our source for the IC50 values is patent publication US9682941B2, “Substituted biphenyl analogues as dual inhibitors of aromatase and sulfatase” (ESTRYX PHARMA LIMITED, priority 2013, dated 2017).

Assay [1] has as its target T1, aromatase (Homo sapiens, UniProt P11511).
T1 construct: JEG-3 which constitutively expresses high amount of aromatase and steroid sulfatase; endogenous in cells; host or cells: JEG-3
T1 sequence (P11511 1-503): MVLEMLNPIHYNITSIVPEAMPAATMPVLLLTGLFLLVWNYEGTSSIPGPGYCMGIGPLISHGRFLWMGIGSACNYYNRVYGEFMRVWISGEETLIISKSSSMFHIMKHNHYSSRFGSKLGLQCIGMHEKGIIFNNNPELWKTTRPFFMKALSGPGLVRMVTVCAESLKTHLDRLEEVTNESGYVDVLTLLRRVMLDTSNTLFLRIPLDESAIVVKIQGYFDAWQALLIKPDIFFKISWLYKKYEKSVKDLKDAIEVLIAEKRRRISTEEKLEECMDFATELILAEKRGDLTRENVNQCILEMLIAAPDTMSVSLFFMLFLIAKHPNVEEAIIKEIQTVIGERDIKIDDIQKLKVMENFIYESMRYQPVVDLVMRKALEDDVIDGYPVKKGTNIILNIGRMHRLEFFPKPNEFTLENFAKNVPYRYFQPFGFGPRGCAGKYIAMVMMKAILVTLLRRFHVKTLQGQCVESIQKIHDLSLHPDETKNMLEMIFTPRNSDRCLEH
As to the kind of experiment: Aromatase inhibition assay in JEG-3 cells ([1β-3H] androstenedione, tritiated water release). It counts as cell-based. Particulars: 1.25 hour incubation, duplicate. Here is the method: (§1) Aromatase and steroid sulfatase enzymes inhibitions were evaluated in the human chorionic carcinoma cell line JEG-3 which constitutively expresses high amount of aromatase and steroid sulfatase.
For aromatase inhibition assay, JEG-3 cells were seeded into 96-well plates at 35,000 cells/well and maintained in MEM containing supplements. When reaching 80% confluent, the cells were washed once with serum-free MEM, incubated with [1β-^3H] androstenedione (A4, 0.2 μCi/ml) for 1.25 hour in the presence of the test substances added in a concentration series. The product, tritiated water (^3H2O), was separated using 2.5% (w/v) dextran-coated charcoal at 4-8° C. for 2 hours. The supernatant radioactivity was measured by a MicroBeta scintillation counter.
(§2) Experiments are performed in duplicate. The inhibitory concentration of 50% of the enzymatic activity is calculated.

In assay [2] the target is T2, steroid sulfatase (Homo sapiens, UniProt P08842).
T2 construct: JEG-3 which constitutively expresses high amount of aromatase and steroid sulfatase; endogenous in cells; host or cells: JEG-3
T2 sequence (P08842 22-583): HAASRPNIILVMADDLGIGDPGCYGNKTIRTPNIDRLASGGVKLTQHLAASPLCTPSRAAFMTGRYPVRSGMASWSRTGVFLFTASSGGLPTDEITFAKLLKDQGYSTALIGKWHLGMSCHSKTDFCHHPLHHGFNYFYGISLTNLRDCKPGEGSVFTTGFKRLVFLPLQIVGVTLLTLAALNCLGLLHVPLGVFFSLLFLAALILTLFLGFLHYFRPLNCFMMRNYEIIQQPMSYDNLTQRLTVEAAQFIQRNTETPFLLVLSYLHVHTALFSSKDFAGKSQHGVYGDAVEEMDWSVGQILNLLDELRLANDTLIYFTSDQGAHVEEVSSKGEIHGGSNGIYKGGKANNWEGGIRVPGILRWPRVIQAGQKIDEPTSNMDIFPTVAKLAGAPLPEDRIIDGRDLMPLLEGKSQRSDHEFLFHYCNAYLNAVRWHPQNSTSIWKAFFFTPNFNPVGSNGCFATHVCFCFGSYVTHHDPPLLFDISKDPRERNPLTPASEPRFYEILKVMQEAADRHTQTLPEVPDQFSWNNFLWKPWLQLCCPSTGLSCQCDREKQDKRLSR
As to the kind of experiment: Steroid sulfatase (STS) inhibition assay in JEG-3 cells ([6,7-3H] estrone sulfate). The assay is classed as cell-based. As to conditions: 1 hour at 37° C., duplicate. Here is the method:
as §1
For STS assay, JEG-3 cells were seeded into 24-well culture plates at 150,000 cells/ml/well and maintained in MEM containing supplements overnight. When reaching 80% confluent, the cells were washed once with serum-free MEM, loaded with 1 ml of substrate mix containing [6,7-3H] Estrone sulfate (E1S, 0.6 μCi/ml) and [4-14C] Estrone (E1, 4 nCi/ml) in the presence of compounds in a concentration series, and incubated for 1 hour at 37° C. The product [3H]E1 was separated from E1S by toluene partition using [4-14C]E1 to monitor extraction procedural losses, and the toluene fraction radioactivity was measured by a MicroBeta scintillation counter.
as §2

The target of assay [3] is T3, CYP1A2 (Homo sapiens, UniProt P05177).
T3 sequence (P05177 1-516): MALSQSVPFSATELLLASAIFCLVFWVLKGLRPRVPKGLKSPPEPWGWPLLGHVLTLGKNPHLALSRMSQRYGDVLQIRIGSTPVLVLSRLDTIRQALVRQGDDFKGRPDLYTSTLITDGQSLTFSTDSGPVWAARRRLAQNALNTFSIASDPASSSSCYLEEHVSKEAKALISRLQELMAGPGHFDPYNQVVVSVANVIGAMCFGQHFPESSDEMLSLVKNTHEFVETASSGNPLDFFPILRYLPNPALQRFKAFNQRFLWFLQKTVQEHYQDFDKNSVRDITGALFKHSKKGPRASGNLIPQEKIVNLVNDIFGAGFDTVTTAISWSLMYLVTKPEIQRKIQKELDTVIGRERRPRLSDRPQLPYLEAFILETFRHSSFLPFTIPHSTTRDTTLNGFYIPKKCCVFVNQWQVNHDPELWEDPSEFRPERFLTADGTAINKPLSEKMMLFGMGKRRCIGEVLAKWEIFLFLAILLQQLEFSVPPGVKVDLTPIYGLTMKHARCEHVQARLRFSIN
As to the kind of experiment: Cytochrome P450 inhibition, human recombinant CYP1A2. It counts as in vitro ADME. Particulars: recombinant human CYP, 15 minutes, 37° C. Here is the method: (§3) Inhibitory activity of the compounds towards CYP1A2, 2C9, 2C19, 2D6, and 3A4 was evaluated using human recombinant CYPs. Test compounds and reference inhibitors were initially prepared from their stock solutions in a mixture solvent of DMSO/ACN (10/90) at a concentration of 200-fold of the final. A 3-fold serial dilution (1/3, 1/9, 1/27 etc.) was made in the DMSO/ACN mixture solvent to generate 7 consecutive concentrations. The serially diluted solutions of test compounds and reference inhibitors (positive controls) were further diluted directly in recombinant human CYP enzymes in assay buffer (0.1 M potassium phosphate buffer, pH7.4) to reach the concentration of 2-fold of the final (2×). Aliquots of 30 μL of 2× compound/enzyme solutions were loaded to a 96-well assay plates and preincubated at 37° C. for 10 minutes. An aliquot of 15 μL of prewarmed 4× substrate solutions made in the assay buffer was added into each of the wells containing the 2× compound/enzyme mixtures. Finally, the reaction was initiated by adding an aliquot of 15 μL of 4×NADPH made in the assay buffer and the assay plates were further incubated at 37° C. for a time period designated for each isoform (5 minutes for 3A4, 20 minutes for 2C9, 10 minutes for 2D6 and 2C19, and 15 minutes for 1A2). The reactions were stopped by adding 120 μL ACN containing the stable isotopes of the metabolites for corresponding CYP isoforms, followed by vortexing for 5 minutes and centrifugation at 4000 rpm for 15 minutes. The resulting supernatants were transferred into new 96-well plates for LC-MS/MS analysis. Experiments are performed in duplicate. The inhibitory concentration of 50% of the enzymatic activity is calculated.

For assay [4], the target named is CYP2C9 (Homo sapiens, UniProt P11712). As to the kind of experiment: Cytochrome P450 inhibition, human recombinant CYP2C9. It counts as in vitro ADME. As to conditions: recombinant human CYP, 20 minutes, 37° C. Here is the method:
as §3

Assay [5] addresses CYP2C19 (Homo sapiens, UniProt P33261). As to the kind of experiment: Cytochrome P450 inhibition, human recombinant CYP2C19. The assay is classed as in vitro ADME. As to conditions: recombinant human CYP, 10 minutes, 37° C. Here is the method: as §3
Assay [6] concerns the target CYP2D6 (Homo sapiens, UniProt P10635). As to the kind of experiment: Cytochrome P450 inhibition, human recombinant CYP2D6. It counts as in vitro ADME. Particulars: recombinant human CYP, 10 minutes, 37° C. Here is the method: as §3
For assay [7], the target named is CYP3A4 (Homo sapiens, UniProt P08684). As to the kind of experiment: Cytochrome P450 inhibition, human recombinant CYP3A4. As to conditions: recombinant human CYP, 5 minutes, 37° C. It counts as in vitro ADME. Here is the method: as §3
Sequence of CYP3A4 (P08684 whole entry): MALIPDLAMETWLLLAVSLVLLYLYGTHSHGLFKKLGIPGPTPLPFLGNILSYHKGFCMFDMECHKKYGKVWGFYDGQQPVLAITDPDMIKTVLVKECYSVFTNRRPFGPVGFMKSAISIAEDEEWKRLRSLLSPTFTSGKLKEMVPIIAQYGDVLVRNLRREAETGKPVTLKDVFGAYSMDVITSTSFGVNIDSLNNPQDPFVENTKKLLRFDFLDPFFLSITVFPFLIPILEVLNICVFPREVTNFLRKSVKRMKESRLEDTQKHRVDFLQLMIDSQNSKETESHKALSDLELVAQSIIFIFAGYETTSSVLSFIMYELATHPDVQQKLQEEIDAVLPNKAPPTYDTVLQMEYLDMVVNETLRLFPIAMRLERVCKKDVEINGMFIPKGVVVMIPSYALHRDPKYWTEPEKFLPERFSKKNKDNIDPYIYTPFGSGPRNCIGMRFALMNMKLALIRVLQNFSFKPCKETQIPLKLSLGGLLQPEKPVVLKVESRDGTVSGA

Sequence of CYP2C19 (P33261 whole entry): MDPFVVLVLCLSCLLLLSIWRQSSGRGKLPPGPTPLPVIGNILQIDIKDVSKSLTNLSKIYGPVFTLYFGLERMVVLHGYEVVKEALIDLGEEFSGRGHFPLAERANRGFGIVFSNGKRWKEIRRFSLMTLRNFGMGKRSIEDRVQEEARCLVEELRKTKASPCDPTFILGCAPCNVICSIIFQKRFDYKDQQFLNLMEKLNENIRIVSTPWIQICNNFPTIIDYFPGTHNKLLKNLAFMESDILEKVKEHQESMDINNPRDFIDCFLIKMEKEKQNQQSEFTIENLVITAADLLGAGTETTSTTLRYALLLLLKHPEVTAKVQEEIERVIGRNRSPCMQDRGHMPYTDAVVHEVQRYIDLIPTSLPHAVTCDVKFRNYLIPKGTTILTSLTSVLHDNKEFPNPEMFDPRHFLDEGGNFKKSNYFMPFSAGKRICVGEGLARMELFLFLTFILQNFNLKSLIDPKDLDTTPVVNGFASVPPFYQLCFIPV
Sequence of CYP2C9 (P11712 whole entry): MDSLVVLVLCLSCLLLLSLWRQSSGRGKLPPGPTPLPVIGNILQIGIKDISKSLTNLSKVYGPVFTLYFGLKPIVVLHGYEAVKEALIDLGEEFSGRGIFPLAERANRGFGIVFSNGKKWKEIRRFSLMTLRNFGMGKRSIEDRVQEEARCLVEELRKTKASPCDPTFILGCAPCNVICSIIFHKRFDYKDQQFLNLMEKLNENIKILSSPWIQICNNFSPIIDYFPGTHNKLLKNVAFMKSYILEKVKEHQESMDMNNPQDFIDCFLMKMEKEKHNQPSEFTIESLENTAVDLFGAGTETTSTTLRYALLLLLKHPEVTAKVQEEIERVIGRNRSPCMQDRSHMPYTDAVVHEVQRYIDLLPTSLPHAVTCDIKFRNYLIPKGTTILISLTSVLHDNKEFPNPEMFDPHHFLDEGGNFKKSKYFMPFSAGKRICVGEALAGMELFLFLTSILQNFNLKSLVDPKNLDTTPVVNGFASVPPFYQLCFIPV
Sequence of CYP2D6 (P10635 whole entry): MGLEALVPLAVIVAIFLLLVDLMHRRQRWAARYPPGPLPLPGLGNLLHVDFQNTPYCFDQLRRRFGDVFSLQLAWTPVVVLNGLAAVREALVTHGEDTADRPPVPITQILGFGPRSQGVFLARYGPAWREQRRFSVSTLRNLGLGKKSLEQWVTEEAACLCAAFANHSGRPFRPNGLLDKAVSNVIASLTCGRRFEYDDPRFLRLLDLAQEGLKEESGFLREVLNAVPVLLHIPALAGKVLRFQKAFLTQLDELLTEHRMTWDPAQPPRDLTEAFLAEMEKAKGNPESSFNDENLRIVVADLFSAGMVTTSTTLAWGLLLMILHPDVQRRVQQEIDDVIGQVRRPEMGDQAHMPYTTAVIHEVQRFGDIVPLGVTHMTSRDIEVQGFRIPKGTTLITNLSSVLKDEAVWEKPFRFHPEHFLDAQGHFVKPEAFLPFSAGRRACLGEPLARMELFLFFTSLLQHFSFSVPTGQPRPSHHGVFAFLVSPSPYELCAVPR

For the molecule `N#Cc1cnc(Cn2cnc3ccccc32)nc1-c1ccc(OS(N)(=O)=O)cc1` [Example 9, 4-(2-((1H-Benzo[d]imidazol-1-yl)methyl)-5-cyanopyrimidin-4-yl)phenyl sulfamate], the IC50 was 0.0035 µM in assay [1]; 0.0018 µM in assay [2]; more than 5 µM in assay [3]; more than 5 µM in assay [4]; more than 5 µM in assay [5]; more than 5 µM in assay [6]. For the same molecule, in assay [7], the IC50 turned out to be 3.68 µM.
`N#Cc1cnc(Cn2cnc3ccccc32)cc1-c1ccc(OS(N)(=O)=O)cc1` [Example 17, 4-(2-((1H-Benzo[d]imidazol-1-yl)methyl)-5-cyanopyridin-4-yl)phenyl sulfamate]: the IC50 in assay [1] was 0.0022 µM; in assay [2], 0.0039 µM; in assay [3], more than 5 µM; in assay [4], more than 5 µM; in assay [5] it was more than 5 µM; in assay [6], more than 5 µM. In assay [7], the IC50 was more than 5 µM.
For `N#Cc1ccc(Nn2cnc3ccccc32)nc1-c1ccc(OS(N)(=O)=O)cc1` [Example 22, 4-(6-(1H-Benzo[d]imidazol-1-ylamino)-3-cyanopyridin-2-yl)phenyl sulfamate], the 50% inhibitory concentration (IC50) was 0.0037 µM in assay [1]; 0.006 µM in assay [2]; more than 5 µM in assay [3]; more than 5 µM in assay [4]; more than 5 µM in assay [5]; more than 5 µM in assay [6]. Besides, in assay [7], the IC50 was more than 5 µM.
`N#Cc1ccc(Cn2cnc3cc(F)c(F)cc32)cc1-c1ccc(OS(N)(=O)=O)cc1` [Example 24, 2′-Cyano-5′-((5,6-difluoro-1H-benzo[d]imidazol-1-yl)methyl)biphenyl-4-yl sulfamate]: the IC50 in assay [1] is 0.0009 µM; in assay [2], 0.002 µM; in assay [3] it was more than 5 µM; in assay [4], more than 5 µM; in assay [5], more than 5 µM; in assay [6] it was more than 5 µM. Moreover, the IC50 in assay [7] amounted to 3.26 µM.
With `N#Cc1cnc(Nn2cnc3ccccc32)cc1-c1ccc(OS(N)(=O)=O)cc1` [Example 26, 4-(2-(1H-Benzo[d]imidazol-1-ylamino)-5-cyanopyridin-4-yl)phenyl sulfamate], the concentration for half-maximal inhibition (IC50) in assay [1] is 0.0027 µM; in assay [2], 0.0118 µM; in assay [3], more than 5 µM; in assay [4], more than 5 µM; in assay [5] it was more than 5 µM; in assay [6], more than 5 µM. Also, in assay [7], the IC50 was 2.54 µM.
Regarding `N#Cc1ncc(Cn2cnc3ccccc32)cc1-c1ccc(OS(N)(=O)=O)cc1` [Example 31, 4-(5-((1H-Benzo[d]imidazol-1-yl)methyl)-2-cyanopyridin-3-yl)phenyl sulfamate], the half-maximal inhibitory concentration (IC50) in assay [1] was 0.0046 µM; in assay [2], 0.0105 µM; in assay [3], more than 5 µM; in assay [4], more than 5 µM; in assay [5], more than 5 µM; in assay [6], more than 5 µM. Moreover, the IC50 in assay [7] is more than 5 µM.
As to `N#Cc1cnc(Cn2cnc3cccnc32)cc1-c1ccc(OS(N)(=O)=O)cc1` [Example 36, 4-(2-((3H-Imidazo[4,5-b]pyridin-3-yl)methyl)-5-cyanopyridin-4-yl)phenyl sulfamate], the IC50 in assay [1] was 0.002 µM; in assay [2], 0.0105 µM; in assay [3], more than 5 µM; in assay [4] it was more than 5 µM; in assay [5], more than 5 µM; in assay [6], more than 5 µM. Further, the IC50 in assay [7] was more than 5 µM.

Broadly, the IC50 is the concentration needed to halve the response being measured.
